We go through 19 molecules from ChEMBL document CHEMBL1137264, “Carbonic anhydrase inhibitors. Inhibition of the cytosolic human isozymes I and II, and the transmembrane, tumor-associated isozymes IX and XII with substituted aromatic sulfonamides activatable in hypoxic tumors” (Bioorg Med Chem Lett, 2006).

SMILES strings stand for the structures. “And” between values parts separate entries of the source, which are not always exact repeats. Equal entries are not always repeated. Where only a bound is given, the exact number is not on record here.

For orientation: Ki means the dissociation constant of the complex between target and ligand, obtained from inhibition or displacement. The low end stands for higher affinity, the high end for lower affinity.

Targets include Carbonic anhydrase 1 (Homo sapiens, UniProt P00915); Carbonic anhydrase 9 (Homo sapiens, UniProt Q16790); Carbonic anhydrase 2 (Homo sapiens, UniProt P00918); Carbonic anhydrase 12 (Homo sapiens, UniProt O43570).

Chain of Carbonic anhydrase 12 (O43570 whole entry): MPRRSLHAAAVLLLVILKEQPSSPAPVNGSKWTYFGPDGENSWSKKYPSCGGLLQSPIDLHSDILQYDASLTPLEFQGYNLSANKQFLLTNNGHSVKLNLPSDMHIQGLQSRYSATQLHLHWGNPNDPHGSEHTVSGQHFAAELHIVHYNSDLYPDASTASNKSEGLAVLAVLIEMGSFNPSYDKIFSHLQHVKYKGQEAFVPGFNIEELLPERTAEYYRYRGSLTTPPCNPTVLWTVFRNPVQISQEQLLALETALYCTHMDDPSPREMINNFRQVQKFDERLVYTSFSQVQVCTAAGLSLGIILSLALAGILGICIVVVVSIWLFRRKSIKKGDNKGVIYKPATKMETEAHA
Chain of Carbonic anhydrase 1 (P00915 whole entry): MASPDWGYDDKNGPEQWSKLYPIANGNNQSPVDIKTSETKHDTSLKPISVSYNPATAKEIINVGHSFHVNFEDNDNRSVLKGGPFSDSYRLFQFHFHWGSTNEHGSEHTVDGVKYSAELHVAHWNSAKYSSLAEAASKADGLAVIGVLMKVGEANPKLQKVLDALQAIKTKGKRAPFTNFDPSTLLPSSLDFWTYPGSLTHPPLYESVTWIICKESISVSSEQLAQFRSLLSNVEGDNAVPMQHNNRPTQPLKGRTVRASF
Description for Carbonic anhydrase 12: Inhibition of human cloned CA12 catalytic domain by CO2 hydration assay
Description for Carbonic anhydrase 2: Inhibition of human cloned CA2 by CO2 hydration assay
Description for Carbonic anhydrase 9: Inhibition of human cloned CA9 catalytic domain by CO2 hydration assay

Take `COC(=O)CS(=O)(=O)c1cc(Cl)c(C)cc1S(N)(=O)=O`: the Ki at Carbonic anhydrase 1 was 5100 nM; at Carbonic anhydrase 9, 1840 nM; at Carbonic anhydrase 2, 9.6 nM; on Carbonic anhydrase 12, 1350 nM.
In the same order, the values of `NS(=O)(=O)c1cc(C(=O)N2CCCC2)c(Cl)cc1SSc1cc(Cl)c(C(=O)N2CCCC2)cc1S(N)(=O)=O` are 22100 nM, 766 nM, 4620 nM and 190 nM.
Consider `Cc1cc(S(N)(=O)=O)c(S(=O)(=O)C(C)C(=O)NN)cc1Cl` (stereo unspecified), for which the inhibitory constant (Ki) on Carbonic anhydrase 1 was determined as 14200 nM; on Carbonic anhydrase 9, 3420 nM; at Carbonic anhydrase 2 it was 536 nM; at Carbonic anhydrase 12, 2420 nM.
In the same order, the values of `NS(=O)(=O)c1cc(C(=O)NCc2ccccc2)c(Cl)cc1S` are 19700 nM, 40.9 nM, 19.9 nM and 35.6 nM.
In the same order, the values of `Cc1cc(S(N)(=O)=O)c(S(=O)(=O)CC(=O)O)cc1Cl` are 11600 nM, 5440 nM, 547 nM and 2400 nM.
As for `Cc1cc(S(N)(=O)=O)c(S/C(=N\NS(=O)(=O)c2ccccc2)c2ccccc2)cc1Cl`, the Ki at Carbonic anhydrase 1 is 113000 nM; at Carbonic anhydrase 9, more than 10000 nM; at Carbonic anhydrase 2, more than 10000 nM; on Carbonic anhydrase 12, more than 10000 nM.
Consider `NS(=O)(=O)c1cc(C(=O)NCc2ccccc2)c(Cl)cc1SSc1cc(Cl)c(C(=O)NCc2ccccc2)cc1S(N)(=O)=O`, for which the inhibition constant Ki on Carbonic anhydrase 1 is 82100 nM; at Carbonic anhydrase 9, more than 10000 nM; on Carbonic anhydrase 2, 6100 nM; at Carbonic anhydrase 12, more than 10000 nM.
Regarding `NS(=O)(=O)c1cc2c(cc1SSc1cc3c(cc1S(N)(=O)=O)S(=O)(=O)NCN3)NCNS2(=O)=O`, the Ki on Carbonic anhydrase 1 was 310000 nM; at Carbonic anhydrase 9 it was 780 nM; on Carbonic anhydrase 2, more than 10000 nM; at Carbonic anhydrase 12, 1970 nM.
For `NS(=O)(=O)c1cc2c(cc1S)NCNS2(=O)=O`, the inhibition constant (Ki) was 7500 nM and 7300 nM at Carbonic anhydrase 1; 113 nM and 115 nM on Carbonic anhydrase 9; 8.6 nM and 8.7 nM on Carbonic anhydrase 2; 117 nM and 118 nM on Carbonic anhydrase 12.
As to `CSc1cc2c(cc1S(N)(=O)=O)S(=O)(=O)NCN2`, the inhibitory constant (Ki) stood at 10900 nM at Carbonic anhydrase 1, 139 nM at Carbonic anhydrase 9, 3800 nM at Carbonic anhydrase 2 and 108 nM on Carbonic anhydrase 12.
In the same order, the values of `CCOC(=O)c1cc(S(N)(=O)=O)c(S)cc1Cl` are 6400 nM, 56 nM, 18.5 nM and 53 nM.
In the same order, the values of `CC/C(=N/Nc1ccc([N+](=O)[O-])cc1)Sc1cc(Cl)c(C)cc1S(N)(=O)=O` are 220000 nM, more than 10000 nM, more than 10000 nM and more than 10000 nM.
In the same order, the values of `COC(=O)C(C)S(=O)(=O)c1cc(Cl)c(C)cc1S(N)(=O)=O` (stereo unspecified) are 5800 nM, 1610 nM, 244 nM and 1100 nM.
Regarding `CCOC(=O)c1cc(S(N)(=O)=O)c(SSc2cc(Cl)c(C(=O)OCC)cc2S(N)(=O)=O)cc1Cl`, the Ki on Carbonic anhydrase 1 was 7800 nM; on Carbonic anhydrase 9 it was more than 10000 nM; on Carbonic anhydrase 2, 5570 nM; at Carbonic anhydrase 12, more than 10000 nM.
`Cc1cc(S(N)(=O)=O)c(S(=O)(=O)C(C)C(=O)O)cc1Cl` (stereo unspecified): the inhibition constant Ki at Carbonic anhydrase 1 turned out to be 27300 nM; at Carbonic anhydrase 9 it was 5000 nM; on Carbonic anhydrase 2, 806 nM; at Carbonic anhydrase 12, 3050 nM.
In the same order, the values of `Cc1cc(S(N)(=O)=O)c(S/C(=N\Nc2ccc([N+](=O)[O-])cc2)c2ccccc2)cc1Cl` are 379000 nM, more than 10000 nM, more than 10000 nM and more than 10000 nM.
In the same order, the values of `CC(C)CSc1cc2c(cc1S(N)(=O)=O)S(=O)(=O)NCN2` are 392000 nM, more than 10000 nM, 2680 nM and 1000 nM.
With `NS(=O)(=O)c1cc(C(=O)N2CCCC2)c(Cl)cc1S`, the Ki on Carbonic anhydrase 1 was determined as 2600 nM; at Carbonic anhydrase 9, 14.5 nM; at Carbonic anhydrase 2, 19.6 nM; at Carbonic anhydrase 12, 20 nM.
As for `Cc1cc(S(N)(=O)=O)c(S(=O)(=O)CC(=O)NN)cc1Cl`, the Ki at Carbonic anhydrase 1 amounted to 7700 nM; on Carbonic anhydrase 9 it was 1440 nM; at Carbonic anhydrase 2, 9.2 nM; on Carbonic anhydrase 12 it was 1390 nM.
